Activity calls are given as the source filed them. The calls are words filed in the database; no cut-off is given here.
What was measured:
Rattus norvegicus [1] = test: Antiinflammatory activity in rat assessed as inhibition of carrageenin-induced foot edema at 33 mg/kg, po; type: functional, organism-based; design: dose 33 mg/kg
[2] = Ionization constant, pKa of the compound; type: physicochemical
Rattus norvegicus [3] = test: Antiinflammatory activity in rat assessed as inhibition of carrageenin-induced foot edema at 100 mg/kg, po; type: functional

| pKa [2] | Compound | inhibition (Rattus norvegicus [1]) | inhibition in vivo at 100 mg/kg (Rattus norvegicus [3]) [%] |
| --- | --- | --- | --- |
| 6.08 | COc1ccccc1NC(=O)C1CN(C)C(=O)C1=O (stereo unspecified) | Active | – |
| – | COc1ccc(NC(=O)C2CN(c3ccccc3)C(=O)C2=O)cc1 (stereo unspecified) | Active | – |
| 5.87 | O=C(Nc1ccccc1C(F)(F)F)C1CN(c2ccccc2)C(=O)C1=O (stereo unspecified) | Active | – |
| – | O=C(Nc1ccc(C(F)(F)F)cc1)C1CN(c2ccccc2)C(=O)C1=O (stereo unspecified) | Active | – |
| 6.49 | CCOC(=O)c1ccccc1NC(=O)C1CN(C)C(=O)C1=O (stereo unspecified) | Active | – |
| 5.55 | CN1CC(C(=O)Nc2ccc(F)cc2)C(=O)C1=O (stereo unspecified) | Active | – |
| 5.79 | Cc1ccc(NC(=O)C2CN(C)C(=O)C2=O)cc1 (stereo unspecified) | Active | – |
| – | CN1CC(C(=O)Nc2ccc(C(F)(F)F)cc2)C(=O)C1=O (stereo unspecified) | Active | – |
| 6.19 | COc1ccccc1NC(=O)C1CN(c2ccccc2)C(=O)C1=O (stereo unspecified) | Active | – |
| 5.84 | COc1ccc(NC(=O)C2CN(C)C(=O)C2=O)cc1 (stereo unspecified) | Active | – |
| – | CC(=O)Oc1ccccc1C(=O)O [ASPIRIN] | – | 50 |
| – | O=C(Nc1ccccc1Cl)C1CN(c2ccccc2)C(=O)C1=O (stereo unspecified) | Active | – |
| 5.58 | O=C(Nc1ccccc1)C1CN(c2ccccc2)C(=O)C1=O (stereo unspecified) | Active | – |
| 5.51 | CN1CC(C(=O)Nc2ccc(Cl)cc2)C(=O)C1=O (stereo unspecified) | Active | – |
| – | O=C(Nc1ccc(Cl)cc1)C1CN(c2ccccc2)C(=O)C1=O (stereo unspecified) | Active | – |
| 5.86 | CN1CC(C(=O)Nc2ccccc2)C(=O)C1=O (stereo unspecified) | Active | – |
